Test results published in ChEMBL document CHEMBL1132059, “Antitumor agents 187: synthesis and cytotoxicity of substituted 8,8-dimethyl-2H,8H-pyrano[6,5-h]quinoline-2-one and related compounds” (1999).
≈ marks a conversion by molar mass, not a printed value. One block for each molecule: values may come before it. Calls of active or inactive are those of the source. The rule behind the calls is not given here.

Assays:
CAKI-1 [1] = assay: Cytotoxic activity against human renal cancer (CAKI-1) cell line; type: functional; settings: read-out: ED50 (the source's name)
1A9 = assay: Cytotoxic activity against human ovarian cancer (1A9) cell line; type: functional; settings: read-out: ED50 (the source's name)
A549 = assay: Cytotoxic activity against human lung carcinoma (A-549) cell line; type: functional; settings: read-out: ED50 (the source's name)
MCF7 = assay: Cytotoxic activity against human breast cancer (MCF-7) cell line; type: functional; settings: read-out: ED50 (the source's name)
HCT-8 [2] = assay: Cytotoxic activity against human ileocecal carcinoma (HCT-8) cell line; type: functional; settings: read-out: ED50 (the source's name)
KB = assay: Cytotoxic activity against human epidermoid carcinoma of the nasopharynx (KB) cell line; type: functional; settings: read-out: ED50 (the source's name)
CAKI-1 [3] = assay: Cytotoxic activity against human renal cancer (CAKI-1) cell line; NA=Not active; type: functional, cell-based
HCT-8 [4] = assay: Cytotoxic activity against human ileocecal carcinoma (HCT-8) cell line; NA=Not active; type: functional, cell-based
HCT-116 = assay: Compound was tested for in vitro growth inhibition of human colon cancer HCT116 cell line; type: functional
SF-295 = assay: Compound was tested for in vitro growth inhibition of human […] SF-295 cell line; type: functional
SK-MEL-28 = assay: Compound was tested for in vitro growth inhibition of human melanoma SK-MEL-28 cell line; type: functional
MDA-MB-435 = assay: Compound was tested for in vitro growth inhibition of human breast cancer MDA-MB-435 cell line; type: functional
HL-60 = assay: Compound was tested for in vitro growth inhibition of human leukemia cell line HL60; type: functional
PD-145 = assay: Compound was tested for in vitro growth inhibition of human prostate cancer PD-145 cell line; type: functional
NCI-H226 = assay: Compound was tested for in vitro growth inhibition of human non-small cell lung cancer cell line NCI-H226; type: functional
OVCAR-3 = assay: Compound was tested for in vitro growth inhibition of human ovarian cancer OVCAR-3 cell line; type: functional
CAKI-1 [5] = assay: Compound was tested for in vitro growth inhibition of human […] cancer CAKI-1 cell line; type: functional
COLO 205 = assay: Compound was tested for in vitro growth inhibition of human colon cancer COLO 205 cell line; type: functional

Compound: CC1(C)C=Cc2c(ccc3ccc(O)nc23)O1
EC50 (CAKI-1 [1]): > 40 µg/mL
EC50 (1A9): 5.8 µg/mL (≈ 25.5 µM)
EC50 (A549): 18 µg/mL (≈ 79.2 µM)
EC50 (MCF7): 14.7 µg/mL (≈ 64.7 µM)
EC50 (HCT-8 [2]): 19.3 µg/mL (≈ 84.9 µM)
EC50 (KB): 13.1 µg/mL (≈ 57.6 µM)

Compound: CC1(C)C=Cc2c(ccc3c(-c4ccccc4)cc(O)nc23)O1
EC50 (CAKI-1 [1]): > 40 µg/mL
EC50 (1A9): 10 µg/mL (≈ 33 µM)
EC50 (A549): 36.3 µg/mL (≈ 120 µM)
EC50 (MCF7): 30 µg/mL (≈ 98.9 µM)
EC50 (HCT-8 [2]): 28 µg/mL (≈ 92.3 µM)
EC50 (KB): > 40 µg/mL

Compound: Cc1cc2c(C)c(C)c(O)nc2c2c1OC(C)(C)C=C2
EC50 (CAKI-1 [1]): 43 µg/mL (≈ 160 µM)
EC50 (A549): 41 µg/mL (≈ 152 µM)
EC50 (MCF7): 38 µg/mL (≈ 141 µM)
EC50 (HCT-8 [2]): 41 µg/mL (≈ 152 µM)
EC50 (KB): 37 µg/mL (≈ 137 µM)

Compound: CCCc1cc(O)nc2c3c(ccc12)OC(C)(C)C=C3
ED50 (CAKI-1 [3]): inactive
EC50 (1A9): > 40 µg/mL
EC50 (A549): > 40 µg/mL
EC50 (MCF7): > 40 µg/mL
EC50 (KB): > 40 µg/mL
ED50 (HCT-8 [4]): inactive

Compound: Cc1cc(S)nc2c3c(ccc12)OC(C)(C)C=C3
ED50 (CAKI-1 [3]): inactive
EC50 (1A9): 12 µg/mL (≈ 46.6 µM)
EC50 (A549): 30.3 µg/mL (≈ 118 µM)
EC50 (MCF7): 13.8 µg/mL (≈ 53.6 µM)
EC50 (HCT-8 [2]): 28.8 µg/mL (≈ 112 µM)
EC50 (KB): 23 µg/mL (≈ 89.4 µM)

GI50 (HCT-116): 4.9 µM
GI50 (SK-MEL-28): > 100 µM
GI50 (MDA-MB-435): 1.74 µM
GI50 (HL-60): 0.427 µM
GI50 (NCI-H226): > 100 µM
GI50 (OVCAR-3): 6.03 µM
GI50 (COLO 205): 2.75 µM
Compound: Cc1cc(O)nc2c3c(ccc12)OC(C)(C)C=C3
GI50 (SF-295): 30.2 µM
EC50 (CAKI-1 [1]): 2.5 µg/mL (≈ 10.4 µM)
EC50 (A549): 2.2 µg/mL (≈ 9.12 µM)
EC50 (MCF7): 1.7 µg/mL (≈ 7.05 µM)
EC50 (HCT-8 [2]): 1.7 µg/mL (≈ 7.05 µM)
GI50 (PD-145): 3.63 µM
EC50 (KB): 1.6 µg/mL (≈ 6.63 µM)
GI50 (CAKI-1 [5]): 6.17 µM

Compound: Cc1cc(=O)n(C(=O)OC(C)(C)C)c2c3c(ccc12)OC(C)(C)C=C3
EC50 (CAKI-1 [1]): 4.5 µg/mL (≈ 13.2 µM)
EC50 (A549): 4.3 µg/mL (≈ 12.6 µM)
EC50 (MCF7): 2.4 µg/mL (≈ 7.03 µM)
EC50 (HCT-8 [2]): 3.6 µg/mL (≈ 10.5 µM)
EC50 (KB): 2.5 µg/mL (≈ 7.32 µM)

Compound: Cc1c(O)nc2c3c(ccc2c1C)OC(C)(C)C=C3
EC50 (CAKI-1 [1]): 35.5 µg/mL (≈ 139 µM)
EC50 (A549): 25 µg/mL (≈ 97.9 µM)
EC50 (MCF7): 19 µg/mL (≈ 74.4 µM)
EC50 (HCT-8 [2]): 32 µg/mL (≈ 125 µM)
EC50 (KB): 23 µg/mL (≈ 90.1 µM)
